Measurements published in US20260116868A1 (Arcus Biosciences, Inc., priority 2023, published 2026).

Legend:
[1] = biological target: T1, Cbl-b (Homo sapiens, UniProt Q13191); assay: Cbl-b probe displacement HTRF binding assay; details: 0.4 nM Cbl-b, 150 nM BODIPY probe
T1 construct: biotin (biotinylated protein)
In short: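 Binding IC50 from four-parameter fit of HTRF signal loss, normalised to DMSO (0%) and no-protein (100%) wells. Biotinylated Cbl-b 0.4 nM was preincubated 60 min with compound (20-point 1:2 dilution) before 15 min with 150 nM BODIPY probe; Tb-streptavidin detection.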

[2] = tested on: Jurkat cells; assay: IL-2 secretion assay in Jurkat cells activated with CD3/CD28 T Cell Activator; type: cell-based; details: Homo sapiens; Jurkat cells, CD3/CD28 T Cell Activator, 24 h, IL-2 AlphaLISA; read-out: IL-2 Secretion (EC50)
In short: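 Jurkat cells in Opti-MEM were preincubated 1 h at 37° C with compound (final 10 μM to 300 pM, 16-point 1:2 dilution), then activated with human CD3/CD28 T Cell Activator for 24 h at 37° C. Supernatant IL-2 measured by AlphaLISA; EC50 from 4-parameter logistic fit.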

T1 sequence (Q13191 whole entry, species assumed): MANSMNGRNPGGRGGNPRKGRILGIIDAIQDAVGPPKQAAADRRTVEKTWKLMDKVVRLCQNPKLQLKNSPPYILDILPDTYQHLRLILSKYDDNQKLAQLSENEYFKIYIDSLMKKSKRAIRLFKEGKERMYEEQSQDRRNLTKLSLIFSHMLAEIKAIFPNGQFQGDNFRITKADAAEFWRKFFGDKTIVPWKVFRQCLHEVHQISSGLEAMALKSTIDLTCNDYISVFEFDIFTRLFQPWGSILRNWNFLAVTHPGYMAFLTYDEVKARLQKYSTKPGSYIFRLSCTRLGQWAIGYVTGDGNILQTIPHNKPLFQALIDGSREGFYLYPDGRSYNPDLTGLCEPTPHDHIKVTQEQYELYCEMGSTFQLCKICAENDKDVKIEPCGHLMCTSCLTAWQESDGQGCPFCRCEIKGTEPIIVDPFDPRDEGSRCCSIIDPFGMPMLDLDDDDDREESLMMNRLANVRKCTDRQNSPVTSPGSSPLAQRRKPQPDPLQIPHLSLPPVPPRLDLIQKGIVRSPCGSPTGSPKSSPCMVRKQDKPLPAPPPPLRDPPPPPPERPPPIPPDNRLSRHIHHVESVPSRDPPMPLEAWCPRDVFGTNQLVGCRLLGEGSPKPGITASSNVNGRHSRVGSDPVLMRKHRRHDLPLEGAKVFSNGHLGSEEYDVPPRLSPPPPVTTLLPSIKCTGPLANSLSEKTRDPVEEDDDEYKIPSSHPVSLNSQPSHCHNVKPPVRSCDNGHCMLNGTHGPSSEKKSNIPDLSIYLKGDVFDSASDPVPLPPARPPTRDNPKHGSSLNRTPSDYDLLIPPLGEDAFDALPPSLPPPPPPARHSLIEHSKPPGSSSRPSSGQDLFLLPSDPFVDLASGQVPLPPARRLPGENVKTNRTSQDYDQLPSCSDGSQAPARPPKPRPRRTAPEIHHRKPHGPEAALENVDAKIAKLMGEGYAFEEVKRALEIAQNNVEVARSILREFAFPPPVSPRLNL

| SMILES | IC50 [1] [nM] | EC50 [2] [nM] |
| --- | --- | --- |
| [2H]C([2H])([2H])n1ccnc1-c1cc(C#N)ccc1-c1cc(NC(=O)c2cc(CNCCOC)cn(C3CC3)c2=O)nc(C2CC2)c1 [Example 45, N-[4-(4-cyano-2-{1-[(^2H3)methyl]-2-imidazolyl}phenyl)-6-cyclopropyl-2-pyridyl]-1-cyclopropyl-5-[(2-methoxyethylamino)methyl]-2-oxo-1,2-dihydronicotinamide] | < 100 | < 100 |
| COCC1(NCc2cc(C(=O)Nc3cc(-c4ccc(C#N)cc4-c4nncn4C(F)F)cc(C4CC4)n3)c(=O)n(C3CC3)c2)CCC1 [Example 12, N-(4-{4-cyano-2-[4-(difluoromethyl)-4H-1,2,4-triazol-3-yl]phenyl}-6-cyclopropyl-2-pyridyl)-1-cyclopropyl-5-{[1-(methoxymethyl)cyclobutylamino]methyl}-2-oxo-1,2-dihydronicotinamide] | < 100 | 100 to 1000 |
| CN(C)Cc1c[nH]c(=O)c(C(=O)Nc2cc(-c3ccc(F)cc3-c3nncn3C)cc(C3CC3)n2)c1 [Example 32, N-{6-Cyclopropyl-4-[4-fluoro-2-(4-methyl-4H-1,2,4-triazol-3-yl)phenyl]-2-pyridyl}-5-[(dimethylamino)methyl]-2-oxo-1,2-dihydronicotinamide] | < 100 | 1000 to 5000 |
| Cn1ccnc1-c1cc(C#N)ccc1-c1cc(NC(=O)c2cc(CNC3(C)CCC3)cn(C3CC3)c2=O)nc(C2CC2)c1 [Example 39, N-{4-[4-cyano-2-(1-methyl-2-imidazolyl)phenyl]-6-cyclopropyl-2-pyridyl}-1-cyclopropyl-5-[(1-methylcyclobutylamino)methyl]-2-oxo-1,2-dihydronicotinamide] | < 100 | < 100 |
| C[C@H]1CCCN(Cc2cc(C(=O)Nc3cc(-c4ccc(C#N)cc4-c4nc(C(F)(F)F)cn4C)cc(C4CC4)n3)c(=O)n(C3CC3)c2)C1 [Example 47, N-(4-{4-cyano-2-[1-methyl-4-(trifluoromethyl)-2-imidazolyl]phenyl}-6-cyclopropyl-2-pyridyl)-5-{[(S)-3-methyl-1-piperidyl]methyl}-1-cyclopropyl-2-oxo-1,2-dihydronicotinamide] | 100 to 1000 | 1000 to 5000 |
| C[C@H]1CCCN(Cc2cc(C(=O)Nc3cc(-c4ccc(C#N)cc4-c4nccn4C)cc(C4CC4)n3)c(=O)n(C3CC3)c2)C1 [Example 43, N-{4-[4-cyano-2-(1-methyl-2-imidazolyl)phenyl]-6-cyclopropyl-2-pyridyl}-5-{[(S)-3-methyl-1-piperidyl]methyl}-1-cyclopropyl-2-oxo-1,2-dihydronicotinamide] | < 100 | < 100 |
| Cn1ccnc1-c1cc(C#N)ccc1-c1cc(NC(=O)c2cc(CN3CCC4(CC4)C3)cn(C3CC3)c2=O)nc(C2CC2)c1 [Example 41, N-{4-[4-cyano-2-(1-methyl-2-imidazolyl)phenyl]-6-cyclopropyl-2-pyridyl}-5-{(5-aza-5-spiro[2.4]heptyl)methyl}-1-cyclopropyl-2-oxo-1,2-dihydronicotinamide] | < 100 | 100 to 1000 |
| C[C@H]1CCCN(Cc2cc(C(=O)Nc3cccc(C4(c5nncn5C)CC(F)(F)C4)c3)c(=O)n(C3CC3)c2)C1 [Example 79, 1-cyclopropyl-N-[3-[3,3-difluoro-1-(4-methyl-1,2,4-triazol-3-yl)cyclobutyl]phenyl]-5-[[(3S)-3-methylpiperidin-1-yl]methyl]-2-oxopyridine-3-carboxamide] | 100 to 1000 | 100 to 1000 |
| CO[C@@H](C)CNCc1cc(C(=O)Nc2cc(-c3ccc(C#N)cc3C(=O)N3CC(F)(F)C3)cc(C3CC3)n2)c(=O)n(C2CC2)c1 [Example 95, N-(4-{4-cyano-2-[(3,3-difluoro-1-azetidinyl)carbonyl]phenyl}-6-cyclopropyl-2-pyridyl)-5-{[(S)-2-methoxypropylamino]methyl}-1-cyclopropyl-2-oxo-1,2-dihydronicotinamide] | < 100 | < 100 |
| COCCNCc1cc(C(=O)Nc2cc(-c3ccc(F)cc3-n3nncc3C)cc(C3CC3)n2)c(=O)n(C2CC2)c1 [Example 71, N-{6-cyclopropyl-4-[4-fluoro-2-(5-methyl-1H-1,2,3-triazol-1-yl)phenyl]-2-pyridyl}-1-cyclopropyl-5-[(2-methoxyethylamino)methyl]-2-oxo-1,2-dihydronicotinamide] | < 100 | < 100 |
| CO[C@@H]1CCN(Cc2cc(C(=O)Nc3cc(-c4ccc(F)cc4-c4nncn4C)cc(C4CC4)n3)c(=O)n(C3CC3)c2)C1 [Example 22, N-{6-cyclopropyl-4-[4-fluoro-2-(4-methyl-4H-1,2,4-triazol-3-yl)phenyl]-2-pyridyl}-5-{[(R)-3-methoxy-1-pyrrolidinyl]methyl}-1-cyclopropyl-2-oxo-1,2-dihydronicotinamide] | < 100 | 100 to 1000 |
| C[C@H]1CCCN(Cc2cc(C(=O)Nc3cc(-c4ccc(F)cc4-c4nncn4C)cc(C4CC4)n3)c(=O)n(C3CC3)c2)C1 [Example 2, 1-Cyclopropyl-N-[6-cyclopropyl-4-[4-fluoro-2-(4-methyl-1,2,4-triazol-3-yl)phenyl]pyridin-2-yl]-5-[[(3S)-3-methylpiperidin-1-yl]methyl]-2-oxopyridine-3-carboxamide] | < 100 | < 100 |
| C[C@H]1CCCN(Cc2cc(C(=O)Nc3cc(-c4ccc(F)cc4-c4nncn4C)cc(C4CC4)n3)c(=O)n(CCO)c2)C1 [Example 59, N-[6-cyclopropyl-4-[4-fluoro-2-(4-methyl-1,2,4-triazol-3-yl)phenyl]pyridin-2-yl]-1-(2-hydroxyethyl)-5-[[(3S)-3-methylpiperidin-1-yl]methyl]-2-oxopyridine-3-carboxamide] | < 100 | < 100 |
| N#Cc1ccc(-c2cc(NC(=O)c3cc(CNCCOC(F)(F)F)cn(C4CC4)c3=O)nc(C3CC3)c2)c(-c2nncn2C(F)F)c1 [Example 9, N-(4-{4-cyano-2-[4-(difluoromethyl)-4H-1,2,4-triazol-3-yl]phenyl}-6-cyclopropyl-2-pyridyl)-1-cyclopropyl-2-oxo-5-[(2-trifluoromethoxyethylamino)methyl]-1,2-dihydronicotinamide] | < 100 | < 100 |
| Cc1cccnc1-c1cc(C#N)ccc1-c1cc(NC(=O)c2cc(CN3CCO[C@H](C)C3)cn(C3CC3)c2=O)nc(C2CC2)c1 [Example 75, N-[4-[4-cyano-2-(3-methylpyridin-2-yl)phenyl]-6-cyclopropylpyridin-2-yl]-1-cyclopropyl-5-[[(2R)-2-methylmorpholin-4-yl]methyl]-2-oxopyridine-3-carboxamide] | 100 to 1000 | 1000 to 5000 |
| CN(C)Cc1cc(C(=O)Nc2cc(-c3ccc(F)cc3-c3nncn3C)cc(C3CC3)n2)c(=O)n(C2CC2)c1 [Example 33, N-{6-Cyclopropyl-4-[4-fluoro-2-(4-methyl-4H-1,2,4-triazol-3-yl)phenyl]-2-pyridyl}-1-cyclopropyl-5-[(dimethylamino)methyl]-2-oxo-1,2-dihydronicotinamide] | < 100 | 100 to 1000 |
| CC1CC(c2cccc(NC(=O)c3cc(CN4CCC[C@H](C)C4)cn(C4CC4)c3=O)c2)(c2nncn2C)C1 (mixture of isomers) [Example 76, 1-cyclopropyl-N-[3-[3-methyl-1-(4-methyl-1,2,4-triazol-3-yl)cyclobutyl]phenyl]-5-[[(3S)-3-methylpiperidin-1-yl]methyl]-2-oxopyridine-3-carboxamide] | < 100 | < 100 |
| COCCNCc1cc(C(=O)Nc2cc(-c3ccc(C#N)cc3-c3ncoc3C)cc(C3CC3)n2)c(=O)n(C2CC2)c1 (single isomer, unassigned) [Example 50, N-{4-[4-cyano-2-(5-methyl-1,3-oxazol-4-yl)phenyl]-6-cyclopropyl-2-pyridyl}-1-cyclopropyl-5-[(2-methoxyethylamino)methyl]-2-oxo-1,2-dihydronicotinamide] | < 100 | < 100 |
| CO[C@H]1C[C@](c2cccc(NC(=O)c3cc(CN4CCC[C@H](C)C4)cn(C4CC4)c3=O)c2)(c2nncn2C)C1 [Example 81, 1-cyclopropyl-N-[3-[3-methoxy-1-(4-methyl-1,2,4-triazol-3-yl)cyclobutyl]phenyl]-5-[[(3S)-3-methylpiperidin-1-yl]methyl]-2-oxopyridine-3-carboxamide] | 100 to 1000 | 100 to 1000 |
| C[C@H]1CCCN(Cc2cc(C(=O)Nc3cc(-c4ccc(C(N)=O)cc4-c4nccn4C)cc(C4CC4)n3)c(=O)n(C3CC3)c2)C1 [Example 44, N-{4-[4-carbamoyl-2-(1-methyl-2-imidazolyl)phenyl]-6-cyclopropyl-2-pyridyl}-5-{[(S)-3-methyl-1-piperidyl]methyl}-1-cyclopropyl-2-oxo-1,2-dihydronicotinamide] | 100 to 1000 | 1000 to 5000 |
| COCCN(C)Cc1cc(C(=O)Nc2cc(-c3ccc(F)cc3-c3nncn3C)cc(C3CC3)n2)c(=O)n(C2CC2)c1 [Example 6, N-{6-cyclopropyl-4-[4-fluoro-2-(4-methyl-4H-1,2,4-triazol-3-yl)phenyl]-2-pyridyl}-1-cyclopropyl-5-{[(2-methoxyethyl)-N-methylamino]methyl}-2-oxo-1,2-dihydronicotinamide] | < 100 | 1000 to 5000 |
| C[C@@H]1CN(Cc2cc(C(=O)Nc3cc(-c4ccc(C#N)cc4-c4nccn4C)cc(C4CC4)n3)c(=O)n(C3CC3)c2)CCO1 (single isomer, unassigned) [Example 36] | 100 to 1000 | 1000 to 5000 |
